Experimental data as given in patent US4017611A, “Control of insects with 3-hydroxymethacrylic acid methyl ester dimethylthionophosphate” (priority 1970, dated 1977).
Read-outs that look alike come from different tables or passages of the source.

Tested on: one day old houseflies (Musca domestica)
Test: Ingestion test with one day old houseflies
Assay type: in vivo
Details: read-out: % flies killed; for mortality at 0.4 ppm: 0.4 ppm in 30% sugar water; for mortality at 0.8 ppm: 0.8 ppm in 30% sugar water; for mortality at 1.5 ppm: 1.5 ppm in 30% sugar water; for mortality at 3 ppm: 3 ppm in 30% sugar water; for mortality at 6 ppm: 6 ppm in 30% sugar water; for mortality at 12 ppm: 12 ppm in 30% sugar water; for mortality at 25 ppm: 25 ppm in 30% sugar water; for mortality at 50 ppm: 50 ppm in 30% sugar water; for mortality at 100 ppm: 100 ppm in 30% sugar water
Protocol: Dilution series were manufactured with water. As solvent for the test preparations and similarly as a nutrition agent for the flies, 30% sugar water was used which had been coloured with chlorantin light red (as an attractant). The dilutions were tested with one day old houseflies. The 1, 2 and 4 hour controls enabled the speed of action to be determined. By means of the 24 hour control the limit concentration (action strength) could also be determined.

`COC(=O)C(C)=COP(=S)(OC)OC` [Compound I, 3-hydroxymethacrylic acid methyl ester dimethylthionophosphate] was tested, and the mortality at 0.4 ppm (1 hour) was 0%, the mortality at 0.4 ppm (2 hours) was 0% and the mortality at 0.4 ppm (4 hours) was 0%. For the same compound, the mortality at 0.4 ppm (24 hours) was 0%, the mortality at 0.8 ppm (1 hour) was 0% and the mortality at 0.8 ppm (2 hours) was 0%. For the same compound, the mortality at 0.8 ppm (4 hours) was 0%, the mortality at 0.8 ppm (24 hours) was 0% and the mortality at 1.5 ppm (1 hour) was 0%. It also gave a mortality at 1.5 ppm (2 hours) of 0%, a mortality at 1.5 ppm (4 hours) of 0% and a mortality at 1.5 ppm (24 hours) of 10%. The mortality at 3 ppm (1 hour) was 10%, the mortality at 3 ppm (2 hours) was 20% and the mortality at 3 ppm (4 hours) was 50%. It also gave a mortality at 3 ppm (24 hours) of 90%, a mortality at 6 ppm (1 hour) of 30% and a mortality at 6 ppm (2 hours) of 40%. The mortality at 6 ppm (4 hours) was 100%, the mortality at 6 ppm (24 hours) was 100% and the mortality at 12 ppm (1 hour) was 40%. The mortality at 12 ppm (2 hours) was 70%, the mortality at 12 ppm (4 hours) was 100% and the mortality at 12 ppm (24 hours) was 100%. For the same compound, the mortality at 25 ppm (1 hour) was 40%, the mortality at 25 ppm (2 hours) was 70% and the mortality at 25 ppm (4 hours) was 100%. The mortality at 25 ppm (24 hours) was 100%, the mortality at 50 ppm (1 hour) was 60% and the mortality at 50 ppm (2 hours) was 90%. For the same compound, the mortality at 50 ppm (4 hours) was 100%, the mortality at 50 ppm (24 hours) was 100% and the mortality at 100 ppm (1 hour) was 100%. The mortality at 100 ppm (2 hours) was 100%, the mortality at 100 ppm (4 hours) was 100% and the mortality at 100 ppm (24 hours) was 100%.
